Data: ChEMBL document CHEMBL4725465 (ACS Med Chem Lett, 2020)
Where a SMILES comes first, the peptide text is derived from it. [ ]: non-standard residue; d: D form. The star is where a group is joined. Gly(N-(2R-Ph-propyl)) = C[C@@H](CNCC(=O)O)c1ccccc1; Piperidin1yl(4-NH2,4-COOH) = NC1(C(=O)O)CCN(*)CC1; N(Indan-2-yl)Gly = O=C(O)CNC1Cc2ccccc2C1; Gly(NCH2CH2Ph) = O=C(O)CNCCc1ccccc1; Morpholide = C1CN(*)CCO1; X1 = CNC(=O)NC1CCN(*)CC1

Experiments:
[1] = target: Kappa-type opioid receptor (Homo sapiens, UniProt P41145); assay: Agonist activity at human kappa opioid receptor expressed in HEK293 cells assessed as inhibition of forskolin-induced cAMP accumulation measured after 5 hrs by One-Glo luciferase assay; type: functional, cell-based
Kappa-type opioid receptor, sequence (P41145 whole entry): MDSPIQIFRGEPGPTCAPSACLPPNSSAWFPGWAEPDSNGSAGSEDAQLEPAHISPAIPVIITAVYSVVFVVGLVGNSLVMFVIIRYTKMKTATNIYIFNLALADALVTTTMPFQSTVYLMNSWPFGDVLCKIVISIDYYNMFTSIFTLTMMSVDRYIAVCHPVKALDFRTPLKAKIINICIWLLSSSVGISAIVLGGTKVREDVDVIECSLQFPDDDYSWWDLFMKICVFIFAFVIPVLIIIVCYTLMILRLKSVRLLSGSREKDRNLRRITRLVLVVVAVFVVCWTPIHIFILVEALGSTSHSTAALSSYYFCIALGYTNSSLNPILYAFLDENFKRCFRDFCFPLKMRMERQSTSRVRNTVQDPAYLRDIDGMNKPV

[2] = target: Delta-type opioid receptor (Homo sapiens, UniProt P41143); assay: Agonist activity at human delta opioid receptor assessed as inhibition of forskolin-induced cAMP accumulation
Delta-type opioid receptor, sequence (P41143 whole entry): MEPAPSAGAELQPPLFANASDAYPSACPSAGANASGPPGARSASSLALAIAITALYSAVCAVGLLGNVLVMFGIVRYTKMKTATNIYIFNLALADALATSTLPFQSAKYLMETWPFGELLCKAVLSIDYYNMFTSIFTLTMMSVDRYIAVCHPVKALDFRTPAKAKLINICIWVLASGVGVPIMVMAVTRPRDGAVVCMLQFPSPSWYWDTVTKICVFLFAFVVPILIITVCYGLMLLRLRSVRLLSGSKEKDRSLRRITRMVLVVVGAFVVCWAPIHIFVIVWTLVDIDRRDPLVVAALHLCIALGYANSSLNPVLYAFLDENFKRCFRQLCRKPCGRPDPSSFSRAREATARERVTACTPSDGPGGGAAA

[3] = target: Mu-type opioid receptor (Homo sapiens, UniProt P35372); assay: Agonist activity at human mu opioid receptor assessed as inhibition of forskolin-induced cAMP accumulation; type: ADME
Mu-type opioid receptor, sequence (P35372 whole entry): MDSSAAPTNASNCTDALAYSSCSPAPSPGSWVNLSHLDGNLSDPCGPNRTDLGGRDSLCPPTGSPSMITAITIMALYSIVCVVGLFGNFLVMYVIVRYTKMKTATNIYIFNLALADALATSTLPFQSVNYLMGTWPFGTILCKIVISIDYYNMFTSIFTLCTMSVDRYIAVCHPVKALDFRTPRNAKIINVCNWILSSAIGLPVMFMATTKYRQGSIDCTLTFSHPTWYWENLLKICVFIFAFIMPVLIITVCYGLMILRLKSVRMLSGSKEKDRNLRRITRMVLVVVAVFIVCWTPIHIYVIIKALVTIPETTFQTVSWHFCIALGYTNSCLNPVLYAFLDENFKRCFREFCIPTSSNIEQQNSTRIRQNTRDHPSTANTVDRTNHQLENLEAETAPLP

[4] = Half life in human liver microsomes; type: ADME, Microsome
[5] = Half life in rat liver microsomes; type: ADME, Microsome
[6] = Half life in mouse liver microsomes; type: ADME, Microsome
[7] = target: T1, Cytochrome P450 1A2 (Homo sapiens, UniProt P05177); assay: Inhibition of CYP1A2 in human pooled liver microsomes using phenacetin as substrate measured up to 20 mins by UHPLC-MS/MS analysis; type: ADME
T1 sequence (P05177 whole entry): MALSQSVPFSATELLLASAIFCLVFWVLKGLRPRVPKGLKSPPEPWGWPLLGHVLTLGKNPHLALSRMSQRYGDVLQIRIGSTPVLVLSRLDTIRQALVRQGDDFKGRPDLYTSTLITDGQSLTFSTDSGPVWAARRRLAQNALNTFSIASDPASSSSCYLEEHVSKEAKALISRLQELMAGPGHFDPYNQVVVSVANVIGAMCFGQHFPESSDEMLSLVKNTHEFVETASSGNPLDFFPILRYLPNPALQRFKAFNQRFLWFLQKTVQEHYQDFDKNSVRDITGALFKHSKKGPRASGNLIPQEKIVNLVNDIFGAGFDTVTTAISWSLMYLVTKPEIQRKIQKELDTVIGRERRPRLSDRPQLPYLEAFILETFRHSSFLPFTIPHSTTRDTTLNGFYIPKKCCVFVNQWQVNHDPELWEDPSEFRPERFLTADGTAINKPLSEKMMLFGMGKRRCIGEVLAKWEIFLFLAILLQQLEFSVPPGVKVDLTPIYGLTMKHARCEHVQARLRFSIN

[8] = target: Cytochrome P450 2C9 (Homo sapiens, UniProt P11712); assay: Inhibition of CYP2C9 in human pooled liver microsomes using tolbutamide as substrate measured up to 20 mins by UHPLC-MS/MS analysis; type: ADME
Cytochrome P450 2C9, sequence (P11712 whole entry): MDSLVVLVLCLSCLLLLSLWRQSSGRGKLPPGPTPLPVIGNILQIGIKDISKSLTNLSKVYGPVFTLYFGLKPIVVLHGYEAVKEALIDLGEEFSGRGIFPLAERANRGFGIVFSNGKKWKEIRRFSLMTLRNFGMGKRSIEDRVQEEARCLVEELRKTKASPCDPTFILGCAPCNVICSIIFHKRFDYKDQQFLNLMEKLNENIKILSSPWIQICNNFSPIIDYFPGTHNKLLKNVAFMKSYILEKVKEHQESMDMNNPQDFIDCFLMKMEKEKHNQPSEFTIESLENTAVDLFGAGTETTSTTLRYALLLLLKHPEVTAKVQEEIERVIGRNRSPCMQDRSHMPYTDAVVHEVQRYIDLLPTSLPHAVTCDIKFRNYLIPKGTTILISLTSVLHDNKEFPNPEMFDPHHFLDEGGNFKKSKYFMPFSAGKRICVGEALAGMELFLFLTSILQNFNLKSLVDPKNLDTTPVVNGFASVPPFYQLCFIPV

[9] = target: Cytochrome P450 2D6 (Homo sapiens, UniProt P10635); assay: Inhibition of CYP2D6 in human pooled liver microsomes using dextromethorphan as substrate measured up to 20 mins by UHPLC-MS/MS analysis; type: ADME
Cytochrome P450 2D6, sequence (P10635 whole entry): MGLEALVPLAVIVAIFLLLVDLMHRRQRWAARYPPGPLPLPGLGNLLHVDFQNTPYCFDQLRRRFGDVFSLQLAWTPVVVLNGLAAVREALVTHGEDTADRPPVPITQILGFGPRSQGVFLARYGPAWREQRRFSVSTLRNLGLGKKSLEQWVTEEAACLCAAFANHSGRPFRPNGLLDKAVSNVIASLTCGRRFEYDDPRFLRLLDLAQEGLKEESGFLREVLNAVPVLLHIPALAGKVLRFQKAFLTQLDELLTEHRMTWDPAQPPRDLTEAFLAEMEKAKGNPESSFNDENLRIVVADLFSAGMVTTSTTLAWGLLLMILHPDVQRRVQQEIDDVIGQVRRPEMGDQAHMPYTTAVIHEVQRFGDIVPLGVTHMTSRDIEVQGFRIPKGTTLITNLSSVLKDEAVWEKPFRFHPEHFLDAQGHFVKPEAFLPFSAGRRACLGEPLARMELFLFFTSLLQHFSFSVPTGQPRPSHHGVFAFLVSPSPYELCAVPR

[10] = target: T2, Cytochrome P450 3A4 (Homo sapiens, UniProt P08684); assay: Inhibition of CYP3A4 in human pooled liver microsomes using midazolam as substrate measured up to 20 mins by UHPLC-MS/MS analysis; type: ADME
T2 sequence (P08684 whole entry): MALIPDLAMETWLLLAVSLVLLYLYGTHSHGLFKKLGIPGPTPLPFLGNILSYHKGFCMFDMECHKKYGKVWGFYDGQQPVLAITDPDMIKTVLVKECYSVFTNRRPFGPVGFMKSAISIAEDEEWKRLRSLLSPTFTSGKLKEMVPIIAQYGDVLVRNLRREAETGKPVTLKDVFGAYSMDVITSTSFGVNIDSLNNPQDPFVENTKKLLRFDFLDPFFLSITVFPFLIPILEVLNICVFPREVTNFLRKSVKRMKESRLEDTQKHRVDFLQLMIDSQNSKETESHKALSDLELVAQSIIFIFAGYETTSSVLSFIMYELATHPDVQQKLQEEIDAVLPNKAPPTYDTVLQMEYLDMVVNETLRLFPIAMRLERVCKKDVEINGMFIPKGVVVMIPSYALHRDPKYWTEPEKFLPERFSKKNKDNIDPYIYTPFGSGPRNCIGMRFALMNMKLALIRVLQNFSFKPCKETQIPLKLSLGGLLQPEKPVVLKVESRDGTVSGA

[11] = target: T2, Cytochrome P450 3A4; assay: Inhibition of CYP3A4 in human pooled liver microsomes using testosterone as substrate measured up to 20 mins by UHPLC-MS/MS analysis; type: ADME
[12] = target: Cytochrome P450 2C19 (Homo sapiens, UniProt P33261); assay: Inhibition of CYP2C19 in human pooled liver microsomes using S-mephenytoin as substrate measured up to 20 mins by UHPLC-MS/MS analysis; type: ADME
Cytochrome P450 2C19, sequence (P33261 whole entry): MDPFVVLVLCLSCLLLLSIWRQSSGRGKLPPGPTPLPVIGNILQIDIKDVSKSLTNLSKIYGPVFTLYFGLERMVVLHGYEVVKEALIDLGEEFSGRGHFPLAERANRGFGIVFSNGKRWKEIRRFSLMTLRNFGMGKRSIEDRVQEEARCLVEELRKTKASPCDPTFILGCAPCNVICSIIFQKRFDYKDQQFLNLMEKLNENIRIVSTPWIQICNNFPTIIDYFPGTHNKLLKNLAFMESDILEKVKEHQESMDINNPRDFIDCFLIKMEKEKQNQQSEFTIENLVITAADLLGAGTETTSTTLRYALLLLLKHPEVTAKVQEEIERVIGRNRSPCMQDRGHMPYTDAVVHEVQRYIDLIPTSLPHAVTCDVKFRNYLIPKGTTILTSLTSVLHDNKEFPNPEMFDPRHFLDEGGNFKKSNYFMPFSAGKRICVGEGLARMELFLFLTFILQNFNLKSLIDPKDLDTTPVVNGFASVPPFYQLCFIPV

[13] = target: Voltage-gated inwardly rectifying potassium channel KCNH2 (Homo sapiens, UniProt Q12809); assay: Inhibition of human ERG
Voltage-gated inwardly rectifying potassium channel KCNH2, sequence (Q12809 whole entry): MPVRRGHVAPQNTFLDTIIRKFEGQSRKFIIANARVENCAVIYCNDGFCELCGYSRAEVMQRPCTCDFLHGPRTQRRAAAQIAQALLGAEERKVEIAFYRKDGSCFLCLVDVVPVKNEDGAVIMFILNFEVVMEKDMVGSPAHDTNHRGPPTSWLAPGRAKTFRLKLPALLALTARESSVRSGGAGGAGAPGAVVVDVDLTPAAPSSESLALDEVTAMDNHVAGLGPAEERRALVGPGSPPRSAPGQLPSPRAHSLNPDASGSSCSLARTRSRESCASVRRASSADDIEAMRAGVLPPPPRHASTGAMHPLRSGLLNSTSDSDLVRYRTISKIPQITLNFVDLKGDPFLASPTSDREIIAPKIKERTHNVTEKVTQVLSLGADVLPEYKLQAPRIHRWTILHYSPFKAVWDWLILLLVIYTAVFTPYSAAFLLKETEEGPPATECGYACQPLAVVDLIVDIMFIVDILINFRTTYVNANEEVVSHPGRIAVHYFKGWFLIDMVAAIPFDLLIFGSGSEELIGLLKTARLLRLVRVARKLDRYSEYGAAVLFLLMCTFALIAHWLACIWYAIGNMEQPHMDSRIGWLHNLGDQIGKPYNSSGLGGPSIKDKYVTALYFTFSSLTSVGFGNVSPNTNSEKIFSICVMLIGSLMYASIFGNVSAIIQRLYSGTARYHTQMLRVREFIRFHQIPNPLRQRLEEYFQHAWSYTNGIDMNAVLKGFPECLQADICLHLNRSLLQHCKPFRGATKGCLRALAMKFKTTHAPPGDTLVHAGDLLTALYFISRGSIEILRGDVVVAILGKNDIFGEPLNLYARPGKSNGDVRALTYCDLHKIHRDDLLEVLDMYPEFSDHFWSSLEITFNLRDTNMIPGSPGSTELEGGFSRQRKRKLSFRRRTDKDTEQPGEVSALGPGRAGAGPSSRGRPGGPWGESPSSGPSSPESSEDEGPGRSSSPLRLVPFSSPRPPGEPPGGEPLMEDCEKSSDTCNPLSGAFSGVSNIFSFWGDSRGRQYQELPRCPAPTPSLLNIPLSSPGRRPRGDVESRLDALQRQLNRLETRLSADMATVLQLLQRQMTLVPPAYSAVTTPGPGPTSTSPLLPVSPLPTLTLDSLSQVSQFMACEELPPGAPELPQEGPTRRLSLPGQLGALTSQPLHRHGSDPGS

[14] = Unbound fraction in Sprague-Dawley rat plasma at 1 mg/kg, iv; type: ADME, organism-based
[15] = Unbound fraction in Sprague-Dawley rat brain at 1 mg/kg, iv; type: ADME, organism-based
[16] = Drug concentration in Sprague-Dawley rat plasma at 1 mg/kg, iv; type: ADME, organism-based; settings: in vivo
[17] = Drug concentration in Sprague-Dawley rat brain at 1 mg/kg, iv; type: ADME, organism-based; settings: in vivo
[18] = Unbound brain-to-plasma concentration ratio in Sprague-Dawley rat at 1 mg/kg, iv; type: ADME, organism-based; settings: read-out: K(p,uu,brain)
[19] = AUC (0 to t) in ICR mouse at 1 mg/kg, iv measured up to 24 hrs; type: ADME, organism-based; design: route intravenous, dose 1 mg/kg, time 24 hrs; settings: in vivo
[20] = Half life in ICR mouse at 1 mg/kg, iv measured up to 24 hrs; type: ADME, organism-based; settings: in vivo
[21] = Clearance in ICR mouse at 1 mg/kg, iv measured up to 24 hrs; type: ADME, organism-based; settings: in vivo
[22] = Apparent volume of distribution in ICR mouse at 1 mg/kg, iv measured up to 24 hrs; type: ADME, organism-based; settings: in vivo, read-out: Vz
[23] = AUC (0 to t) in Sprague-Dawley rat at 1 mg/kg, iv measured up to 24 hrs; type: ADME, organism-based; design: route intravenous, dose 1 mg/kg, time <=24; settings: in vivo
[24] = Half life in Sprague-Dawley rat at 1 mg/kg, iv measured up to 24 hrs; type: ADME, organism-based; settings: in vivo
[25] = Clearance in Sprague-Dawley rat at 1 mg/kg, iv measured up to 24 hrs; type: ADME, organism-based; settings: in vivo
[26] = Apparent volume of distribution in Sprague-Dawley rat at 1 mg/kg, iv measured up to 24 hrs; type: ADME, organism-based; settings: in vivo, read-out: Vz
[27] = AUC (0 to t) in Beagle dog at 0.5 mg/kg, iv measured up to 24 hrs; type: ADME, organism-based, Canis lupus familiaris; design: route intravenous, dose 0.5 mg/kg, time <=24; settings: in vivo
[28] = Half life in Beagle dog at 0.5 mg/kg, iv measured up to 24 hrs; type: ADME, organism-based, Canis lupus familiaris; settings: in vivo
[29] = Clearance in Beagle dog at 0.5 mg/kg, iv measured up to 24 hrs; type: ADME, organism-based, Canis lupus familiaris; settings: in vivo
[30] = Apparent volume of distribution in Beagle dog at 0.5 mg/kg, iv measured up to 24 hrs; type: ADME, organism-based, Canis lupus familiaris; settings: in vivo, read-out: Vz
[31] = test system: Rattus norvegicus; assay: Antiinflammatory activity in carrageenan-induced pain in iv dosed Wistar rat model assessed as effect on hindpaw withdrawal threshold administered 4 hrs post-carrageenan challenge and measured for 30 mins after compound administration by Von-Frey test; type: functional, organism-based; settings: dose mg/kg 0.03-0.3, time 30.0 min
[32] = test system: Rattus norvegicus; assay: Antiinflammatory activity in carrageenan-induced pain in Wistar rat model assessed as effect on hindpaw withdrawal threshold at 0.03 to 0.3 mg/kg, iv administered 4 hrs post-carrageenan challenge and measured for 30 mins after compound administration by Von-Frey test relative to control; type: functional; settings: dose mg/kg 0.03-0.3, 0.5 h
[33] = test system: Rattus norvegicus; assay: Antiinflammatory activity in carrageenan-induced pain in Wistar rat model assessed as effect on hindpaw withdrawal threshold at 0.3 mg/kg, iv administered 4 hrs post-carrageenan challenge and measured for 30 mins after compound administration by Von-Frey test relative to control; type: functional; settings: dose mg/kg 0.03-0.3, 0.5 h
[34] = Half life in dog liver microsomes; type: ADME, Canis lupus familiaris, Microsome

SMILES: CC(C)C[C@@H](NC(=O)[C@@H](Cc1ccccc1)NC(=O)[C@@H]1Cc2ccccc2CN1)C(=O)N[C@H](CCCCN)C(=O)N1CCOCC1
- EC50 [1]: > 1 nM

SMILES: CC(C)C[C@@H](NC(=O)[C@@H](Cc1ccccc1)NC(=O)C1(NCCc2ccccc2)CC1)C(=O)N[C@H](CCCCN)C(=O)N1CCC(N)(C(=O)O)CC1
- EC50 [1]: > 1 nM

SMILES: CC(C)C[C@@H](NC(=O)[C@@H](Cc1ccccc1)NC(=O)CNCc1ccccc1)C(=O)N[C@H](CCCCN)C(=O)N1CCOCC1
- EC50 [1]: > 1 nM

SMILES: CC(C)C[C@@H](NC(=O)[C@@H](Cc1ccccc1)NC(=O)CNC[C@@H](c1ccccc1)C(C)C)C(=O)N[C@H](CCCCN)C(=O)N1CCC(N)(C(=O)O)CC1
- EC50 [1]: 0.0095 nM

SMILES: CC(C)C[C@@H](NC(=O)[C@@H](Cc1ccccc1)NC(=O)CN[C@H]1C[C@@H]1c1ccccc1)C(=O)N[C@H](CCCCN)C(=O)N1CCOCC1
- EC50 [1]: 0.08 nM

SMILES: CC(C)C[C@@H](NC(=O)[C@@H](Cc1ccccc1)NC(=O)CNC[C@@H](C)c1ccccc1)C(=O)N[C@H](CCCCN)C(=O)N1CCC(N)(C(=O)O)CC1
- EC50 [1]: 0.0155 nM

SMILES: CC(C)C[C@@H](NC(=O)[C@@H](Cc1ccccc1)NC(=O)CNCCCc1ccccc1)C(=O)N[C@H](CCCCN)C(=O)N1CCOCC1
- EC50 [1]: 0.045 nM

SMILES: CC(C)C[C@@H](NC(=O)[C@@H](Cc1ccccc1)NC(=O)[C@@H](C)NCCc1ccccc1)C(=O)N[C@H](CCCCN)C(=O)N1CCC(N)(C(=O)O)CC1
- EC50 [1]: > 1 nM

SMILES: CC(C)C[C@@H](NC(=O)[C@@H](Cc1ccccc1)NC(=O)CNCC1(c2ccccc2)CC1)C(=O)N[C@H](CCCCN)C(=O)N1CCC(N)(C(=O)O)CC1
- EC50 [1]: 0.057 nM

SMILES: CC(C)C[C@@H](NC(=O)[C@@H](Cc1ccccc1)NC(=O)CNCCc1ccccc1)C(=O)N[C@H](CCCCN)C(=O)N1CCOCC1
- EC50 [1]: 0.048 nM

SMILES: CC(C)C[C@@H](NC(=O)[C@@H](Cc1ccccc1)NC(=O)CNCC(C)(C)c1ccccc1)C(=O)N[C@H](CCCCN)C(=O)N1CCC(N)(C(=O)O)CC1
- EC50 [1]: 0.078 nM

SMILES: CNC(=O)NC1CCN(C(=O)[C@@H](CCCCN)NC(=O)[C@@H](CC(C)C)NC(=O)[C@@H](Cc2ccccc2)NC(=O)CNC[C@H](C)c2ccccc2)CC1 (H-[Gly(N-(2R-Ph-propyl))][dF][dL][dK]-X1)
- EC50 [1]: 0.00053 nM
- EC50 [2]: > 50000 nM
- EC50 [3]: > 50000 nM
- half-life [4]: 0.667 h
- half-life [5]: > 4.47 h
- half-life [6]: 1.92 h
- IC50 [7]: > 30000 nM
- IC50 [8]: > 30000 nM
- IC50 [9]: > 30000 nM
- IC50 [10]: > 30000 nM
- IC50 [11]: > 30000 nM
- IC50 [12]: > 30000 nM
- IC50 [13]: > 30000 nM
- fraction unbound [14]: 0.211
- fraction unbound [15]: 0.0258
- Cp [16]: 1144 ng/mL
- Ct [17]: 57.2 ng/g
- Kp uu [18]: 0.006
- AUC(0-t) at 24 h [19]: 1660 ng·h/mL
- half-life [20]: 0.34 h
- clearance [21]: 10.1 mL/min/kg
- Vd [22]: 0.297 L/kg
- AUC(0-t) at 24 h [23]: 1550 ng·h/mL
- half-life [24]: 4.78 h
- clearance [25]: 10.5 mL/min/kg
- Vd [26]: 4.51 L/kg
- AUC(0-t) at 24 h [27]: 2620 ng·h/mL
- half-life [28]: 4.45 h
- clearance [29]: 3.1 mL/min/kg
- Vd [30]: 1.24 L/kg
- Activity [31]: Dose-dependent effect
- Activity [32]: 28.9%
- Activity [33]: 66.7%
- half-life [34]: 3.6 h

SMILES: CC(C)C[C@@H](NC(=O)[C@@H](Cc1ccccc1)NC(=O)CNCCc1ccccc1)C(=O)N[C@H](CCCCN)C(=O)N1CCC(N)(C(=O)O)CC1 (H-[Gly(NCH2CH2Ph)][dF][dL][dK]-{Piperidin1yl(4-NH2,4-COOH)})
- EC50 [1]: 0.054 nM

SMILES: CC(C)C[C@@H](NC(=O)[C@@H](Cc1ccccc1)NC(=O)CNC1Cc2ccccc2C1)C(=O)N[C@H](CCCCN)C(=O)N1CCOCC1 (H-[N(Indan-2-yl)Gly][dF][dL][dK]-Morpholide)
- EC50 [1]: > 1 nM

SMILES: CCC(CNCC(=O)N[C@H](Cc1ccccc1)C(=O)N[C@H](CC(C)C)C(=O)N[C@H](CCCCN)C(=O)N1CCC(N)(C(=O)O)CC1)c1ccccc1 (mixture of isomers)
- EC50 [1]: 0.0029 nM

SMILES: CC(C)C[C@@H](NC(=O)[C@@H](Cc1ccccc1)NC(=O)[C@H](N)Cc1ccccc1)C(=O)N[C@H](CCCCN)C(=O)N1CCC(N)(C(=O)O)CC1 [DIFELIKEFALIN]
- EC50 [1]: 0.00262 nM
- Activity [33]: 61.9%

SMILES: CC(C)C[C@@H](NC(=O)[C@@H](Cc1ccccc1)NC(=O)CNC[C@H](C)c1ccccc1)C(=O)N[C@H](CCCCN)C(=O)N1CCC(N)(C(=O)O)CC1 [RIMINKEFON]
- EC50 [1]: 0.0014 nM
